Source: patent US20220323416A1, “Ferroportin-Inhibitors For The Use In The Prevention And Treatment Of Kidney Injuries” (Vifor (International) AG, priority 2019, published 2022)

Key:
C57BL/6 mice = assay: Reduction of serum iron by Fpn127 in C57BL/6 mice; type: in vivo, mouse; settings: naïve C57BL/6 mice; for Serum iron: 4 h post dosing; for Serum iron (hypoferremia sustained): 8 h post dosing
Experimental: FIG. 2: Serum iron levels in naïve C57BL/6 mice treated with Fpn127 at 120 mg/kg or 300 mg/kg for 4 h or 8 h. Vehicle was 0.5% methylcellulose in water
To determine the dose of Fpn127 that causes sustained serum iron reduction, C57BL/6 mice received either 120 mg/kg or 300 mg/kg of Fpn127 po for 4 h or 8 h.

guinea pigs = settings: cited from earlier work
[1] = i.v. dosing after RBC transfusion

SMILES	Serum iron (C57BL/6 mice; 120 mg/kg po)	Serum iron (hypoferremia sustained) (C57BL/6 mice; 120 mg/kg po)	Serum iron (C57BL/6 mice; 300 mg/kg po)	Serum iron (hypoferremia sustained) (C57BL/6 mice; 300 mg/kg po)	Hb levels following exchange transfusion (guinea pigs; [1])	NTBI levels following exchange transfusion (guinea pigs; [1])	Total iron in kidneys following transfusion (guinea pigs; [1])	Occurrence of changes in plasma creatinine >0.3 mg/dL (indicator of early AKI) (guinea pigs; i.v. dosing, transfused animals)	Cellular injury (guinea pigs; i.v. immediately after acute red blood cell transfusions)
O=C(NCc1ncccc1F)c1coc(CCNCCc2nc3ccccc3[nH]2)n1 [Fpn127]	reduced significantly	only the dose of 300 mg/kg sustained the hypoferremia	reduced significantly	sustained the hypoferremia					
O=C(NCc1ncccc1F)c1csc(CCNCc2nc3ccccc3[nH]2)n1 [VIT-2653]					significantly improved	significantly improved	can be reduced	significantly reduced	attenuation of cellular injury
